Measurements published in patent EP1247803A2, “Indolinone compounds suitable for modulation of protein kinases” (Sugen, Inc., priority 1996, dated 1998).

Key:
MET = MET biochemical kinase assay; parameters: species or system human; concentration or dose not given beside the values
Outline: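 Capture ELISA: anti-rabbit Fc coat, rabbit anti-MET cytoplasmic domain pAb, lysate MET captured, washed. Compound + kinase buffer (ATP, divalent metals). Readout anti-pTyr-HRP/TMB, colorimetric.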

PDGF-R = PDGF-R (Homo sapiens, UniProt P09619); assay: PDGF-R ELISA; format: cell-based
Chain of PDGF-R (P09619 33-1106, species assumed): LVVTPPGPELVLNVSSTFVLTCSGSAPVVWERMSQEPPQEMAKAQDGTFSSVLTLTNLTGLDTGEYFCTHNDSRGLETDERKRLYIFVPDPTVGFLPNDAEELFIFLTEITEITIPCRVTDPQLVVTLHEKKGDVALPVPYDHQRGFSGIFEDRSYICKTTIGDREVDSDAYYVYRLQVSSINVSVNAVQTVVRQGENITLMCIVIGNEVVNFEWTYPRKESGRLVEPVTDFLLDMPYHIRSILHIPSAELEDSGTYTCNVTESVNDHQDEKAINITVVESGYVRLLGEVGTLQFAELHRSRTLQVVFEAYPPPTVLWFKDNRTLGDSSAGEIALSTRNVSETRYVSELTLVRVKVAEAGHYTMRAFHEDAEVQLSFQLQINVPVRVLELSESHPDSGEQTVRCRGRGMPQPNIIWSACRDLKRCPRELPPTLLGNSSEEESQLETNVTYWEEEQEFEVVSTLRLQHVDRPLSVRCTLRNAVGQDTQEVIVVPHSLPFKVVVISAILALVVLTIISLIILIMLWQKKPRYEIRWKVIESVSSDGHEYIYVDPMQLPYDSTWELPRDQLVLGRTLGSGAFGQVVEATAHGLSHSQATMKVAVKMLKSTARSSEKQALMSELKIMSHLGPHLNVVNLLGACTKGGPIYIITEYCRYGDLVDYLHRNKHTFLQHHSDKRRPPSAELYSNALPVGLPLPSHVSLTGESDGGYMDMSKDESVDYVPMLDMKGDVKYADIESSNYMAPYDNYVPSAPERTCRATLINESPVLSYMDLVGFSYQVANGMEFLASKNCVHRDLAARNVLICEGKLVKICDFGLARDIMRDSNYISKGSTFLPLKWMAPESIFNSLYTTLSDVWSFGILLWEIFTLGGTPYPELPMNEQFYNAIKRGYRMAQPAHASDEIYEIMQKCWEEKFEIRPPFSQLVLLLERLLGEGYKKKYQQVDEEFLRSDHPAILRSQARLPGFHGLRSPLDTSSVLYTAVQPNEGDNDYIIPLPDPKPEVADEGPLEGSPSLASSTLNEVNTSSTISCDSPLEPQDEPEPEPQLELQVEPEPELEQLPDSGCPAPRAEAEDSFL
Description: A PDGF-R ELISA is described in International Patent Publication No. WO 96/40116, published December 19, 1996 by Tang et al.

EGFR = molecular target: T1, EGFR (Homo sapiens, UniProt P00533); assay: EGFR ELISA assay (in vitro kinase activity, EGFR captured from A431 cell lysate); format: biochemical; parameters: concentration or dose not given beside the values
T1 construct: Add 7 ug A431 cell lysate per well (EGFR source); endogenous in cells; host or cells: A431
T1 sequence (P00533 25-1210): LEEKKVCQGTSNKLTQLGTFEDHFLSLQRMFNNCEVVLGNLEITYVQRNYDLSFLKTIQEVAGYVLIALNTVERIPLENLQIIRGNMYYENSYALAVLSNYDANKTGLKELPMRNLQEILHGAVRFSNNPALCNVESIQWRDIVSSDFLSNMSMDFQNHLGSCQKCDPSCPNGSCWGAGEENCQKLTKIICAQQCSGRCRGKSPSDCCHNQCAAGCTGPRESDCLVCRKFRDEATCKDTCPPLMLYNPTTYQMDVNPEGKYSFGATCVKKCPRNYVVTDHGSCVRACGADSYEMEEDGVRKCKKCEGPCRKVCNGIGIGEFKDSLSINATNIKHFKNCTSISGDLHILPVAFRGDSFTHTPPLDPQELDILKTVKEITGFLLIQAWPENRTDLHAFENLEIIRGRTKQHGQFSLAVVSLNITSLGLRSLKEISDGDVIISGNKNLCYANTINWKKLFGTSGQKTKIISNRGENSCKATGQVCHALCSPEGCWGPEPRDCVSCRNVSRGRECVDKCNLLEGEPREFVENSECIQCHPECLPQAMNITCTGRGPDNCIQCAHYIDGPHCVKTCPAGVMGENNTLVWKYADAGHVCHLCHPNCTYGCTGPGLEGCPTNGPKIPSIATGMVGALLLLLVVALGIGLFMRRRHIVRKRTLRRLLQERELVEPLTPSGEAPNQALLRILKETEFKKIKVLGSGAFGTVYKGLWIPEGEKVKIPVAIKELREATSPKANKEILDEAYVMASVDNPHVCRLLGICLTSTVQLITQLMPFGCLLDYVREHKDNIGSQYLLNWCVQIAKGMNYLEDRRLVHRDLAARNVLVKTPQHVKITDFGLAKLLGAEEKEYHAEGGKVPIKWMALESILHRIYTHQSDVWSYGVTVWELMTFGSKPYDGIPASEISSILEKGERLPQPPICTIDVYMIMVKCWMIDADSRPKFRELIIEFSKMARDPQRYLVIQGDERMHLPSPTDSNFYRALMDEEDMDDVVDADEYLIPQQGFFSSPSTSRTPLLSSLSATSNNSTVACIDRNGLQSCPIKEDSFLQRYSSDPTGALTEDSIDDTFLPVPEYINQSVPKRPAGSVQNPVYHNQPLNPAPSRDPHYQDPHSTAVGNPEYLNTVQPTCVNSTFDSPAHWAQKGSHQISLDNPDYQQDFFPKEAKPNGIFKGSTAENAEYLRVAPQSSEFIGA
Outline: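 EGFR from A431 lysate was captured on plates coated with anti-EGFR antibody. Compounds were added 30 min before a 5 min phosphorylation with 3 µM ATP/5 mM MnCl2, which was stopped with 20 mM EDTA. Phosphotyrosine was detected with rabbit anti-phosphotyrosine, then a peroxidase-conjugated secondary and ABTS/H2O2, read at 410 nm.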

`O=C1Nc2c(Br)cc(Br)cc2C1=Cc1ccc([N+](=O)[O-])cc1` [10734/A06] was tested, and the “Met Kinase % Inhibition” value (MET) was 46.9%, the “PDGF Kinase %Inhibition” value (PDGF-R) was -9.9% and the “Biochem EGFR %Inhibition” value (EGFR) was -6.4%.

For `CCOc1cccc(C=C2C(=O)Nc3ccc(Br)c(C)c32)c1O` [10734/C02], the “Met Kinase % Inhibition” value (MET) was 78.6%, the “PDGF Kinase %Inhibition” value (PDGF-R) was 36.0% and the “Biochem EGFR %Inhibition” value (EGFR) was -6.7%.

With `CNS(=O)(=O)c1ccc2c(c1)C(=Cc1ccc(O)c(Br)c1)C(=O)N2` [10734/D09] the “Met Kinase % Inhibition” value (MET) was 88.0%, the “PDGF Kinase %Inhibition” value (PDGF-R) was 42.2% and the “Biochem EGFR %Inhibition” value (EGFR) was 21.0%.

With `CC(C)(C)c1cc(C=C2C(=O)Nc3ccc(S(=O)(=O)Nc4ccc(C(F)(F)F)cc4)cc32)cc(C(C)(C)C)c1OCc1ccccc1` [10733/E05] the “Met Kinase % Inhibition” value (MET) was 2.9%, the “PDGF Kinase %Inhibition” value (PDGF-R) was -33.2% and the “Biochem EGFR %Inhibition” value (EGFR) was 58.3%.

With `COc1c(C)cc(C=C2C(=O)Nc3ccc(S(=O)(=O)Nc4ccc(C(F)(F)F)cc4)cc32)cc1C` [10733/E06] the “Met Kinase % Inhibition” value (MET) was 10.4%, the “PDGF Kinase %Inhibition” value (PDGF-R) was 22.4% and the “Biochem EGFR %Inhibition” value (EGFR) was 37.3%.

In the case of `O=C1Nc2ccc(S(=O)(=O)Nc3ccc(C(F)(F)F)cc3)cc2C1=Cc1ccc([N+](=O)[O-])o1` [10718/E11], the “Met Kinase % Inhibition” value (MET) is reported as 37.5% and the “Biochem EGFR %Inhibition” value (EGFR) is reported as -15.2%.

For `CCOc1cccc(C=C2C(=O)Nc3ccc(S(=O)(=O)Nc4ccc(C(F)(F)F)cc4)cc32)c1O` [10734/E02], the “Met Kinase % Inhibition” value (MET) was 66.9%, the “PDGF Kinase %Inhibition” value (PDGF-R) was 50.1% and the “Biochem EGFR %Inhibition” value (EGFR) was -10.8%.

With `O=C1Nc2ccc(S(=O)(=O)N3CCOCC3)cc2C1=Cc1cc(Br)ccc1O` [10733/F09] the “Met Kinase % Inhibition” value (MET) was 52.8%, the “PDGF Kinase %Inhibition” value (PDGF-R) was -0.3% and the “Biochem EGFR %Inhibition” value (EGFR) was 30.1%.

With `O=C1Nc2ccc(I)cc2C1=Cc1ccc(Br)s1` [10734/B11] the “Met Kinase % Inhibition” value (MET) was 83.6%, the “PDGF Kinase %Inhibition” value (PDGF-R) was -5.5% and the “Biochem EGFR %Inhibition” value (EGFR) was 50.9%.

For `CNS(=O)(=O)c1ccc2c(c1)C(=Cc1cc(Cl)cc(Cl)c1O)C(=O)N2` [10734/D03], the “Met Kinase % Inhibition” value (MET) was 78.6%, the “PDGF Kinase %Inhibition” value (PDGF-R) was 24.1% and the “Biochem EGFR %Inhibition” value (EGFR) was 19.6%.

With `O=C1Nc2ccc(I)cc2C1=Cc1cccc(F)c1O` [10734/B08] the “Met Kinase % Inhibition” value (MET) was 56.1%, the “PDGF Kinase %Inhibition” value (PDGF-R) was -2.4% and the “Biochem EGFR %Inhibition” value (EGFR) was 19.3%.

In the case of `O=C1Nc2ccc(CCCl)cc2C1=Cc1cc(Br)ccc1O` [10733/G09], the “Met Kinase % Inhibition” value (MET) is reported as 41.4%, the “PDGF Kinase %Inhibition” value (PDGF-R) is reported as -17.0% and the “Biochem EGFR %Inhibition” value (EGFR) is reported as 38.7%.

For `COc1c([N+](=O)[O-])cc(C=C2C(=O)Nc3ccc(CCCl)cc32)cc1C(C)(C)C` [10733/G03], the “Met Kinase % Inhibition” value (MET) was 30.5%, the “PDGF Kinase %Inhibition” value (PDGF-R) was 12.7% and the “Biochem EGFR %Inhibition” value (EGFR) was 0.7%.

`Cc1c(Br)ccc2c1C(=Cc1cccc(F)c1O)C(=O)N2` [10734/C08] was tested, and the “Met Kinase % Inhibition” value (MET) was 93.2%, the “PDGF Kinase %Inhibition” value (PDGF-R) was 5.5% and the “Biochem EGFR %Inhibition” value (EGFR) was 35.1%.

In the case of `CCN(CC)c1ccc(C=C2C(=O)Nc3ccc(S(=O)(=O)NC)cc32)c(O)c1` [10734/D05], the “Met Kinase % Inhibition” value (MET) is reported as 55.0%, the “PDGF Kinase %Inhibition” value (PDGF-R) is reported as 8.2% and the “Biochem EGFR %Inhibition” value (EGFR) is reported as -9.6%.

In the case of `COC(=O)c1[nH]c(C)c(C=C2C(=O)Nc3ccc(S(=O)(=O)Nc4ccc(C(F)(F)F)cc4)cc32)c1C(=O)OC` [10718/E07], the “Met Kinase % Inhibition” value (MET) is reported as 80.5% and the “Biochem EGFR %Inhibition” value (EGFR) is reported as 13.9%.

`O=C1Nc2ccc(S(=O)(=O)Nc3ccc(C(F)(F)F)cc3)cc2C1=Cc1cc([N+](=O)[O-])ccc1O` [10733/E10] was tested, and the “Met Kinase % Inhibition” value (MET) was 52.8%, the “PDGF Kinase %Inhibition” value (PDGF-R) was 10.3% and the “Biochem EGFR %Inhibition” value (EGFR) was 31.3%.

With `CCOc1cccc(C=C2C(=O)Nc3c(Br)cc(Br)cc32)c1O` [10734/A02] the “Met Kinase % Inhibition” value (MET) was 51.1%, the “PDGF Kinase %Inhibition” value (PDGF-R) was -3.8% and the “Biochem EGFR %Inhibition” value (EGFR) was 0.0%.

In the case of `COc1c([N+](=O)[O-])cc(C=C2C(=O)Nc3ccc(S(=O)(=O)N4CCOCC4)cc32)cc1C(C)(C)C` [10733/F03], the “Met Kinase % Inhibition” value (MET) is reported as 24.2%, the “PDGF Kinase %Inhibition” value (PDGF-R) is reported as 24.5% and the “Biochem EGFR %Inhibition” value (EGFR) is reported as -3.6%.

`COc1c(C(C)(C)C)cc(C=C2C(=O)Nc3ccc(CCCl)cc32)cc1C(C)(C)C` [10733/G04] was tested, and the “Met Kinase % Inhibition” value (MET) was 20.3%, the “PDGF Kinase %Inhibition” value (PDGF-R) was 11.9% and the “Biochem EGFR %Inhibition” value (EGFR) was 10.6%.

With `CNS(=O)(=O)c1ccc2c(c1)C(=Cc1ccc(C(C)(C)C)cc1)C(=O)N2` [10734/D10] the “Met Kinase % Inhibition” value (MET) was 20.6%, the “PDGF Kinase %Inhibition” value (PDGF-R) was 9.9% and the “Biochem EGFR %Inhibition” value (EGFR) was -4.4%.

In the case of `CCOc1cccc(C=C2C(=O)Nc3ccc(I)cc32)c1O` [10734/B02], the “Met Kinase % Inhibition” value (MET) is reported as 61.9%, the “PDGF Kinase %Inhibition” value (PDGF-R) is reported as -2.9% and the “Biochem EGFR %Inhibition” value (EGFR) is reported as -8.9%.

In the case of `CC(C)(C)c1cc(C=C2C(=O)Nc3ccc(S(=O)(=O)N4CCOCC4)cc32)cc(I)c1OCc1ccccc1` [10733/F02], the “Met Kinase % Inhibition” value (MET) is reported as 71.6%, the “PDGF Kinase %Inhibition” value (PDGF-R) is reported as 3.8% and the “Biochem EGFR %Inhibition” value (EGFR) is reported as 11.3%.

With `O=C1Nc2ccc(S(=O)(=O)Nc3ccc(C(F)(F)F)cc3)cc2C1=Cc1cc(Cl)cc(Cl)c1O` [10734/E03] the “Met Kinase % Inhibition” value (MET) was 99.3%, the “PDGF Kinase %Inhibition” value (PDGF-R) was 27.2% and the “Biochem EGFR %Inhibition” value (EGFR) was 55.0%.

`CCOC(=O)CCc1c(C(=O)OCC)[nH]c(C=C2C(=O)Nc3ccc(S(=O)(=O)Nc4ccc(C(F)(F)F)cc4)cc32)c1CC(=O)OCC` [10718/E05] was tested, and the “Met Kinase % Inhibition” value (MET) was 32.2% and the “Biochem EGFR %Inhibition” value (EGFR) was -3.1%.

`O=C1Nc2ccc(S(=O)(=O)Nc3ccc(C(F)(F)F)cc3)cc2C1=Cc1ccc2ccccc2c1O` [10718/E04] was tested, and the “Met Kinase % Inhibition” value (MET) was 87.7% and the “Biochem EGFR %Inhibition” value (EGFR) was 16.4%.

For `Cc1[nH]c(C=C2C(=O)Nc3c(Br)cc(Br)cc32)c(Br)c1Br` [10717/A11], the “Met Kinase % Inhibition” value (MET) was 64.8% and the “Biochem EGFR %Inhibition” value (EGFR) was 59.9%.

For `O=C1Nc2ccc(S(=O)(=O)Nc3ccc(C(F)(F)F)cc3)cc2C1=Cc1ccc(Cl)c([N+](=O)[O-])c1` [10718/E08], the “Met Kinase % Inhibition” value (MET) was 69.6% and the “Biochem EGFR %Inhibition” value (EGFR) was 9.3%.

With `Cc1c(O)ccc(C=C2C(=O)Nc3ccc(S(=O)(=O)Nc4ccc(C(F)(F)F)cc4)cc32)c1O` [10718/E09] the “Met Kinase % Inhibition” value (MET) was 80.8% and the “Biochem EGFR %Inhibition” value (EGFR) was 17.0%.

For `O=C1Nc2ccc(S(=O)(=O)Nc3ccc(C(F)(F)F)cc3)cc2C1=Cc1ccco1` [10718/E10], the “Met Kinase % Inhibition” value (MET) was 60.8% and the “Biochem EGFR %Inhibition” value (EGFR) was -7.5%.

In the case of `CCOC(=O)c1cc(C=C2C(=O)Nc3ccc(S(=O)(=O)Nc4ccc(C(F)(F)F)cc4)cc32)oc1C` [10718/E06], the “Met Kinase % Inhibition” value (MET) is reported as 33.4% and the “Biochem EGFR %Inhibition” value (EGFR) is reported as 2.0%.
